Here are results for five molecules from patent US20250129084A1, “Compounds” (GlaxoSmithKline Intellectual Property Development Limited, priority 2022, published 2025).

In assay [1] the target is T1, Mycobacterium tuberculosis lysine tRNA synthetase (MtKRS) (Mycobacterium tuberculosis, UniProt P9WFU9).
T1 construct: made in house; host or cells: E. coli BL21 (DE3)
Put plainly: biochemical. Particulars: 40 nM MtKRS, 30 μM ATP, 12 μM L-lysine, 20 hours incubation; read-out: Assay 1 Mtb KRS.

The subject of assay [2] is Mycobacterium tuberculosis H37Rv in human macrophages THP-1. Put plainly: Mycobacterium tuberculosis in vitro H37Rv in human macrophages THP-1 inhibition assay (intracellular assay). The assay is classed as cell-based. To be noted: read-out: Assay 3 MIC (μM) intracellular. From the text: Assay 3 Mycobacterium tuberculosis In Vitro H37Rv in Human Macrophages THP-1 Inhibition Assay
This ex-vivo assay may represent physiological conditions that mimic disease and take into consideration the favourable contribution of host cells.

The test system of assay [3] is Mycobacterium tuberculosis H37Rv. Put plainly: Mycobacterium tuberculosis in vitro H37Rv extracellular inhibition assay (OD readout). Particulars: 192 h, read-out: Assay 2 MIC (μM) extracellular. It is filed as cell-based.
Assay [4] has the same test system. Put plainly: Acute Mycobacterium tuberculosis in vivo assay.
Where [5] appears, read: H37Rv in THP-1 human macrophages.

In brackets after ≈: the same amount, converted by molar mass. Read-outs that look alike come from different tables or passages of the source.

T1 sequence (P9WFU9 whole entry): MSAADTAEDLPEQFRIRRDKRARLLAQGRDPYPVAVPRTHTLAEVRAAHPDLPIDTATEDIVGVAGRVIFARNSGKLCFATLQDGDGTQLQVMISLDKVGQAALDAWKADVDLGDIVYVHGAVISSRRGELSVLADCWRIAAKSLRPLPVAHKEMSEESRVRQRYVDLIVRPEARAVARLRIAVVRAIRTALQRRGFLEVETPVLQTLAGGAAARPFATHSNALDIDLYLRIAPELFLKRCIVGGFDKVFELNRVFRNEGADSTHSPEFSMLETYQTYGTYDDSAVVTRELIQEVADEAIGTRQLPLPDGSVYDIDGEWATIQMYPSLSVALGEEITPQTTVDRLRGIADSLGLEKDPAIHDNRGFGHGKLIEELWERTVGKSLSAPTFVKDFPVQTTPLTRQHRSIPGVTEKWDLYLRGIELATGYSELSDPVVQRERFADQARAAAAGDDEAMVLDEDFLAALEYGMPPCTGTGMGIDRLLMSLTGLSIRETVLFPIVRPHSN

As to `CCOc1cnn(-c2nc(N)nc3c2C(=O)N([C@@H]2CCCC[C@@H]2O)C3)c1` [Example 53, 2-amino-4-(4-ethoxy-1H-pyrazol-1-yl)-6-((1R,2S)-2-hydroxycyclohexyl)-6,7-dihydro-5H-pyrrolo[3,4-d]pyrimidin-5-one], the IC50 in assay [1] was found to be 300 nM. The MIC in assay [2] (setting [5]) was determined as 0.3 µM (≈ 0.108 µg/mL).
As to `Nc1nc2c(c(-n3cccn3)n1)C(=O)N([C@H]1[C@@H](O)CCCCC1(F)F)C2` [Example 52, 2-Amino-6-((1S,7S)-2,2-difluoro-7-hydroxycycloheptyl)-4-(1H-pyrazol-1-yl)-6,7-dihydro-5H-pyrrolo[3,4-d]pyrimidin-5-one], the IC50 in assay [1] is 80 nM. The MIC turned out to be 0.1 µM (≈ 0.0364 µg/mL) in assay [3] (H37Rv, 7H9 medium, 8 days, Abs 590 nm) and 0.06 µM (≈ 0.0219 µg/mL) in assay [2] (setting [5]). Also, the “CFU reduction @12 mg/kg (acute efficacy study)” value in assay [4] (C57BL/6 mice, 12 mg/kg oral once a day, day 1 to day 8) is 0.4 (CFU reduction.
As for `CNc1nc(N)nc2c1C(=O)N([C@H]1[C@@H](O)CCCCC1(F)F)C2` [Example 51, 2-Amino-6-((1S,7S)-2,2-difluoro-7-hydroxycycloheptyl)-4-(methylamino)-6,7-dihydro-5H-pyrrolo[3,4-d]pyrimidin-5-one], the IC50 in assay [1] worked out at 200 nM. The values for the MIC in assay [3] (H37RV) and in assay [2] (H37RV) were 1 µM (≈ 0.327 µg/mL) and 0.3 µM (≈ 0.0982 µg/mL), respectively.
In the case of `CCOc1nc(N)nc2c1C(=O)N([C@@H]1CCCCC[C@@H]1O)C2` [Example 46, 2-Amino-4-ethoxy-6-((1R,2S)-2-hydroxycycloheptyl)-6,7-dihydro-5H-pyrrolo[3,4-d]pyrimidin-5-one], the MIC in assay [3] (H37RV) worked out at 0.5 µM (≈ 0.153 µg/mL); in assay [2] (H37RV), 1.1 µM (≈ 0.337 µg/mL). In addition, in assay [4] (C57BL/6 mice, 50 mg/kg oral once a day, day 1 to day 8), the “Log PCR reduction in acute efficacy study @ 50 mg/kg” value came to 3. Besides, the “Assay 4 ED99” value in assay [4] (female C57BL/6 mice, intratracheal infection, oral once a day day 1 to day 8, lungs harvested day 9) was found to be 7 mg/kg.
Regarding `CCOc1cnn(-c2nc(N)nc3c2C(=O)N([C@H]2CCCCC2(F)F)C3)c1` [Example 54, (S)-2-amino-6-(2,2-difluorocyclohexyl)-4-(4-ethoxy-1H-pyrazol-1-yl)-6,7-dihydro-5H-pyrrolo[3,4-d]pyrimidin-5-one], in assay [1], the IC50 stood at 200 nM.
